In assay [1] the test system is VSVpp (SARS-2-S) entry into TMPRSS2-positive Calu-3 cells.
The target of assay [2] is Factor Xa (Homo sapiens, UniProt P00742). The assay can be described thus: Chromogenic kinetic enzyme assay of Factor Xa (S2222). The class given is biochemical. The note with it: Table 2; chromogenic assay; read-out: Factor Xa* (IC50 nM). How it is done: (§1) Using GraphPad Prism (GraphPad Software, San Diego, CA), a four-parameter curve fit was used to determine the inhibitor IC50s from a plot of the mean reaction velocity versus the inhibitor concentration. The IC50 values represent the average of three or more separate experimental determinations. Apparent Ki values were calculated from the IC50 values using the Cheng and Prusoff equation (Ki=IC50/(1+[S]/Km).
(§2) Using GraphPad Prism version 6.04 software program, (GraphPad Software, San Diego, CA, graphpad.com), a four parameter curve fit was used to determine the inhibitor IC50s from a plot of the mean reaction velocity versus the inhibitor concentration.
(§3) Fluorescent inhibitor and chromogenic proteolytic assays were performed for compounds prepared in Example 11 in general accordance with the procedures described in Example 9.

Assay [3] has as its target T1, recombinant HGFA serine protease domain (Homo sapiens, UniProt Q04756).
T1 construct: His6 tag (N); seven amino acid spacer plus TEV cleavage site (N); made in house; host or cells: High 5 insect cells (baculovirus; Sf9 for virus production)
T1 sequence (Q04756 373-655): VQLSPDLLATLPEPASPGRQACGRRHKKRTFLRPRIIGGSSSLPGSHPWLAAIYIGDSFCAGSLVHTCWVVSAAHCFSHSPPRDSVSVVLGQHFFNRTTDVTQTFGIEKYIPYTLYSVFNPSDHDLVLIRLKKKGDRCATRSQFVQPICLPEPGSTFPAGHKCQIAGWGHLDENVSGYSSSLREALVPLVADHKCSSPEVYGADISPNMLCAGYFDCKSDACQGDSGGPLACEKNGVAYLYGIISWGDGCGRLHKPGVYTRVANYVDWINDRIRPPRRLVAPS
Put plainly: Fluorescent kinetic enzyme assay of HGFA activity (Boc-QLR-AMC). The conditions noted are these: Table 2; read-out: HGFA (IC50 nM). Type of assay: biochemical. The gist of the method:
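His-tagged HGFA protease domain from baculovirus-infected High 5 cells, 6.25 nM in pH 8 Tris/NaCl/5 mM CaCl2/0.01% Triton X-100 with 2% DMSO. IC50 from four-parameter velocity fit (≥3 runs); apparent Ki by Cheng–Prusoff.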

In assay [4] the target is T2, matriptase (Homo sapiens, UniProt Q9Y5Y6).
T2 construct: purchased R&D Systems 3946-SE-010
T2 sequence (Q9Y5Y6 615-855 limits assumed): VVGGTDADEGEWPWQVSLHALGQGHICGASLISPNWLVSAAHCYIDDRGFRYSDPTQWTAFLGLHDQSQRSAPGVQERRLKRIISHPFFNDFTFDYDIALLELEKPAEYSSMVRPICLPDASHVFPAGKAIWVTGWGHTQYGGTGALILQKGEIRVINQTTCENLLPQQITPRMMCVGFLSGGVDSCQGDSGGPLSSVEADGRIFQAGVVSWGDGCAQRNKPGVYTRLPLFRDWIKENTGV
The assay can be described thus: Fluorescent kinetic enzyme assay of matriptase activity (Boc-QAR-AMC). Type of assay: biochemical. The conditions noted are these: Table 2; read-out: Matriptase (IC50 nM).

The target in assay [5] is recombinant thrombin (Homo sapiens, UniProt P00734). The assay can be described thus: Chromogenic kinetic enzyme assay of thrombin (S2238). The class given is biochemical. The note with it: Table 2; chromogenic assay; read-out: Thrombin* (IC50 nM). How it is done:
as §1, §2, §3

For assay [6], the target named is T3, activated hepsin (Homo sapiens, UniProt P05981).
T3 construct: purchased R&D Systems 4776-SE-010
Put plainly: Fluorescent kinetic enzyme assay of hepsin activity (Boc-QAR-AMC). Type of assay: biochemical.

The mark [7] stands for this setting: Table 2, read-out: Hepsin (IC50 nM).

Read-outs that look alike come from different tables or passages of the source. Starred links: 1 amine or outer side, 2 acyl side, 3 side chain; linkers in the order of their positions; H or OH if unused. Positions of bridges follow the written chain, without caps; N, C: chain ends. Non-standard residues stand in square brackets, D forms with d. Residues, ends and D or L forms follow the SMILES beside them. X6 = N=C(N)NCCC[C@H](N[*:1])C(=O)c1nc2ccc(C(=O)[*:2])cc2s1

Chain of Factor Xa (P00742 235-488 limits assumed): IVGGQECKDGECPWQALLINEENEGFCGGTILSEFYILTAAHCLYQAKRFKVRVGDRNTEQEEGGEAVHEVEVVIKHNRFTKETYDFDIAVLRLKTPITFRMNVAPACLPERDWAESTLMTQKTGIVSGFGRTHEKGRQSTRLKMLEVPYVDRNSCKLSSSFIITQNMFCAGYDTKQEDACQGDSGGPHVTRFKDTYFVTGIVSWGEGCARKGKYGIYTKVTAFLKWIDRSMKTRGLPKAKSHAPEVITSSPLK
Chain of Factor Xa (P00742 41-179 partner limits assumed): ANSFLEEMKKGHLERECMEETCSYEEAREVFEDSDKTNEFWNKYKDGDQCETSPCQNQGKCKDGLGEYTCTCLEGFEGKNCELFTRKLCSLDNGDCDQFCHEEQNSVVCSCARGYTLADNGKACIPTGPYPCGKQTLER
T3 sequence (P05981 163-417 limits assumed): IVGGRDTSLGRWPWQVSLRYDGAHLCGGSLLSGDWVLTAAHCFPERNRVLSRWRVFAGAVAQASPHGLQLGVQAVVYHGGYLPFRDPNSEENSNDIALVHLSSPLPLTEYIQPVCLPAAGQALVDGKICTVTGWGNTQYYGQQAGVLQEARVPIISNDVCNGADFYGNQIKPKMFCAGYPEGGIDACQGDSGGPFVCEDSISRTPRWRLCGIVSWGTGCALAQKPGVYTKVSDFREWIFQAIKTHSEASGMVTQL
T3 sequence (P05981 1-162 partner limits assumed): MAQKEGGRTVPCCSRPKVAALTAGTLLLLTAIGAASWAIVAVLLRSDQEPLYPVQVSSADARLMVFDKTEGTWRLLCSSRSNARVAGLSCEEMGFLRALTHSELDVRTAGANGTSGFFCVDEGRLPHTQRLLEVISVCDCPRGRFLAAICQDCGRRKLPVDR

In general, EC50 refers to the concentration at which the effect is half-maximal. Read a low EC50 as an effect from little substance. In assay [1], `CC(=O)N[C@H](Cc1c[nH]c2ccccc12)C(=O)N[C@@H](Cc1ccccc1)C(=O)N[C@@H](CCCNC(=N)N)C(=O)c1nc2ccccc2s1` [PK-1-89, Ac-dWFR-kbt] gave an EC50 of 32 nM.
One may read the IC50 as the concentration needed to halve the response being measured. Turning to `CC(=O)N[C@H]1CCCCNC(=O)CCC(C(=O)N[C@@H](CCCNC(=N)N)C(=O)c2nc3ccccc3s2)NC(=O)[C@H](CCCNC(=N)N)NC1=O` (some centres unmarked) [VD2109B], the IC50 was 155 nM in assay [2]; 2520 nM in assay [3]; 0.07 nM in assay [4]; above 20000 nM in assay [5]; 0.04 nM in assay [6] (setting [7]).
Take `CC(=O)N[C@H]1CC(=O)NCCCC[C@@H](C(=O)N[C@@H](CCCNC(=N)N)C(=O)c2nc3ccc(C(=O)N[C@@H](C(N)=O)C(C)C)cc3s2)NC(=O)[C@H](CC(C)C)NC1=O` [VD3056, 2-(((3S,6S,14S)-6-acetamido-3-isobutyl-2,5,8-trioxo-1,4,9-triazacyclotetradecane-14-carbonyl)-L-arginyl)-N—((R)-1-amino-3-methyl-1-oxobutan-2-yl)benzo[d]thiazole-6-carboxamide] (Ac-DLK[X6][dV]-NH2; lactam 1-3): the half-maximal inhibitory concentration (IC50) was 118 nM in assay [2]; 5380 nM in assay [3]; 11.2 nM in assay [4]; 33.9 nM in assay [5]; 5.4 nM in assay [6] (setting [7]).
Consider `CC(=O)N[C@H]1CC(=O)NCCCC[C@@H](C(=O)N[C@@H](CCCNC(=N)N)C(=O)c2nc3ccccc3s2)NC(=O)[C@H](CCC(N)=O)NC1=O` [VD3152, (3S,6S,14S)-6-acetamido-3-(3-amino-3-oxopropyl)-N—((S)-1-(benzo[d]thiazol-2-yl)-5-guanidino-1-oxopentan-2-yl)-2,5,8-trioxo-1,4,9-triazacyclotetradecane-14-carboxamide], for which, in assay [1], the “Calu-3 EC50 (nM)” value was “almost equivalent activity” and it took 138 nM to reach a half-maximal effect (EC50).
Take `CC(=O)N[C@H]1CC(=O)NCCCC[C@@H](C(=O)N[C@@H](CCCNC(=N)N)C(=O)c2nc3ccccc3s2)NC(=O)[C@H]([C@H](C)O)NC1=O` [VD3157, (3S,6S,14S)-6-acetamido-N—((S)-1-(benzo[d]thiazol-2-yl)-5-guanidino-1-oxopentan-2-yl)-3-((S)-1-hydroxyethyl)-2,5,8-trioxo-1,4,9-triazacyclotetradecane-14-carboxamide]: the IC50 in assay [2] is 13300 nM; in assay [3] it was 11800 nM; in assay [4], 3.7 nM; in assay [5] it was above 20000 nM; in assay [6] (setting [7]), 5.8 nM.
Take `CC(=O)N[C@H]1CC(=O)NCCCC[C@@H](C(=O)N[C@@H](CCCNC(=N)N)C(=O)c2nc3ccccc3s2)NC(=O)[C@H](CC(N)=O)NC1=O` [VD3166, (3S,6S,14S)-6-acetamido-3-(2-amino-2-oxoethyl)-N—((S)-1-(benzo[d]thiazol-2-yl)-5-guanidino-1-oxopentan-2-yl)-2,5,8-trioxo-1,4,9-triazacyclotetradecane-14-carboxamide]: the IC50 in assay [2] was 4650 nM; in assay [3], 15800 nM; in assay [4], 3.8 nM; in assay [5], above 20000 nM; in assay [6] (setting [7]), 10.1 nM.
In the case of `CC(=O)N[C@H]1CC(=O)NCCCC[C@@H](C(=O)N[C@@H](CCCNC(=N)N)C(=O)c2nc3ccccc3s2)NC(=O)[C@H](C(C)C)NC1=O` [VD3167, (3S,6S,14S)-6-acetamido-N—((S)-1-(benzo[d]thiazol-2-yl)-5-guanidino-1-oxopentan-2-yl)-3-isopropyl-2,5,8-trioxo-1,4,9-triazacyclotetradecane-14-carboxamide], the IC50 was 1510 nM in assay [2]; 1830 nM in assay [3]; 3.2 nM in assay [4]; above 20000 nM in assay [5]; 7.8 nM in assay [6] (setting [7]).
For `CSCC[C@@H]1NC(=O)[C@@H](NC(C)=O)CC(=O)NCCCC[C@@H](C(=O)N[C@@H](CCCNC(=N)N)C(=O)c2nc3ccccc3s2)NC1=O` [VD3173, (3S,6S,14S)-6-acetamido-N—((S)-1-(benzo[d]thiazol-2-yl)-5-guanidino-1-oxopentan-2-yl)-3-(2-(methylthio)ethyl)-2,5,8-trioxo-1,4,9-triazacyclotetradecane-14-carboxamide], in assay [1], the “Calu-3 EC50 (nM)” value is “almost equivalent activity” and the EC50 was determined as 119 nM. Moreover, the IC50 in assay [5] was above 20000 nM.
As for `CC(=O)N[C@H]1CC(=O)NCCCC[C@@H](C(=O)N[C@@H](CCCNC(=N)N)C(=O)c2nc3ccccc3s2)NC(=O)CNC1=O` [VD3174, (6S,14S)-6-acetamido-N—((S)-1-(benzo[d]thiazol-2-yl)-5-guanidino-1-oxopentan-2-yl)-2,5,8-trioxo-1,4,9-triazacyclotetradecane-14-carboxamide], the IC50 is 6180 nM in assay [2]; 4310 nM in assay [3]; 6.3 nM in assay [4]; above 20000 nM in assay [5]; 5.9 nM in assay [6] (setting [7]).
As for `CC(=O)N[C@H]1C/C=C\COc2ccc(cc2)C[C@@H](C(=O)N[C@@H](CCCNC(=N)N)C(=O)c2nc3ccccc3s2)NC(=O)[C@H](CC(C)C)NC1=O` [VD4051, (7S,10S,13S,E)-7-acetamido-N—((S)-1-(benzo[d]thiazol-2-yl)-5-guanidino-1-oxopentan-2-yl)-10-isobutyl-8,11-dioxo-2-oxa-9,12-diaza-1(1,4)-benzenacyclotetradecaphan-4-ene-13-carboxamide], the IC50 in assay [2] stood at 8810 nM; in assay [4] it was 80.2 nM; in assay [6] (setting [7]), 102 nM. Besides, in assay [1], the EC50 was found to be 565 nM.
As for `CC(=O)N[C@H]1Cc2ccc(cc2)OCCCC[C@@H](C(=O)N[C@@H](CCCNC(=N)N)C(=O)c2nc3ccccc3s2)NC(=O)[C@@H](Cc2c[nH]c3ccccc23)NC1=O` [VD4162A], the IC50 in assay [2] was 7470 nM; in assay [3], 52 nM; in assay [4], 30.8 nM; in assay [5], above 20000 nM.
On to `CC(=O)N[C@H]1CC(=O)N(C)CCCC[C@@H](C(=O)N[C@@H](CCCNC(=N)N)C(=O)c2nc3ccccc3s2)NC(=O)[C@H](CC(C)C)NC1=O` [VD4192B], for which the IC50 in assay [2] was 678 nM; in assay [3] it was 12300 nM; in assay [4] it was 1.1 nM; in assay [5] it was 17100 nM; in assay [6] (setting [7]), 14.9 nM.
As to `CC(=O)N[C@H]1CC(=O)N(C)CCCC[C@@H](C(=O)N[C@@H](CCCNC(=N)N)C(=O)c2nc3ccccc3s2)NC(=O)[C@H](CC(C)C)NC1=O` [VD4192C1], the IC50 in assay [2] was above 20000 nM; in assay [3] it was 7730 nM; in assay [4] it was 111 nM; in assay [5], above 20000 nM; in assay [6] (setting [7]) it was 0.97 nM.
In the case of `CC(=O)N[C@H]1CC(=O)N(C)CCCC[C@@H](C(=O)N[C@@H](CCCNC(=N)N)C(=O)c2nc3ccccc3s2)NC(=O)[C@H](CC(C)C)NC1=O` [VD4192C2], the 50% inhibitory concentration (IC50) was 18500 nM in assay [2]; 8560 nM in assay [3]; 23.5 nM in assay [4]; above 20000 nM in assay [5]; 1.75 nM in assay [6] (setting [7]).
As to `CC(=O)N[C@@H](CC(C)C)C(=O)N[C@@H](CC(C)C)C(=O)N[C@@H](CCCNC(=N)N)C(=O)c1nccs1` [ZFH6201, Ac-LLR-kt], the EC50 in assay [1] turned out to be 349 nM.
In assay [1], `CC(=O)N[C@@H](CCCCN)C(=O)N[C@@H](CCC(N)=O)C(=O)N[C@@H](CC(C)C)C(=O)N[C@@H](CCCNC(=N)N)C(=O)c1nc2ccccc2s1` [ZFH7006, Ac-KQLR-kbt] had an EC50 of 78 nM.
With `CC(=O)N[C@@H](Cc1c[nH]c2ccccc12)C(=O)N[C@@H](CC(C)C)C(=O)N[C@@H](Cc1ccccc1)C(=O)N[C@@H](CCCNC(=N)N)C(=O)c1nc2ccccc2s1` [ZFH7064, Ac-WLFR-kbt], in assay [1], the “Calu-3 EC50 (nM)” value is “excellent potency” and the half-maximal effective concentration (EC50) came out at 150 nM.
In assay [1], `CC(=O)N[C@@H](CO)C(=O)N[C@@H](CCCCN)C(=O)N[C@@H](CC(C)C)C(=O)N[C@@H](CCCNC(=N)N)C(=O)c1nc2ccc(C(=O)N[C@H](C(N)=O)C(C)C)cc2s1` [ZFH7116, Ac-SKLR kbt V-amide] (Ac-SKL[X6]V-NH2) came in with a 50% effective concentration (EC50) of 307 nM. Further, in assay [6] (Table 6, read-out: Hepsin IC50), the IC50 amounted to 0.5 nM.

For the origin of these results see patent publication US12590123B2, “Compounds and methods for treating cancer, viral infections, and allergic conditions” (Washington University, priority 2019, dated 2026).
